According to patent US4316898A, “Cephalosporins” (Boehringer Ingelheim KG, priority 1979, dated 1982):
Values after ≈ are worked out from the molar mass of the structure shown.

Experiments:
[1] = test system: Staphylococcus aureus SG 511; assay: Serial dilution test in the microtiter system, MIC against S. aureus SG 511; assay type: cell-based; settings: SG511, minimum inhibitory concentration, 37° C., 18 to 20 hours
Description: (§1) The tests were performed using the serial dilution test in the microtiter system. The effect of the test compounds on bacteriostasis was examined at the following concentrations: 80, 40, 20, 10, 5, 2.5, 1.25, 0.6, 0.3, 0.08 and 0.02 μgm/ml. The nutrient medium consisted of 10 gm of peptone, 8 gm of meat extract oxoid, 3 gm of sodium chloride, and 2 gm of sec. sodium phosphate diluted with distilled water to […] (pH 7.2-7.4). Only in the test against streptococci 1% of glucose was added. The age of the primary cultures was approximately 20 hours. The standardization of the bacteria suspension was effected using a photometer according to the method of Eppendorf (test tube .phi. 14 mm, filter 546 nm), using for comparison a barium sulfate suspension formed by the addition of 3.0 ml of 1% barium chloride solution to 97 ml of 1% sulfuric acid. After the standardization,Streptococcus aronson was further diluted to a concentration of 1:15, and the other bacteria to a concentration of 1:1500, using a sodium chloride solution.
(§2) 16 mgm of the particular test compound were put into a 10 ml measuring flask, and the flask was subsequently filled to the mark with solvent. The further dilution series was standardized with distilled water or the appropriate solvent.
(§3) The cavities of the microtiter plates were filled with 0.2 ml of nutrient medium. 0.01 ml of the appropriate test compound solution was then added, followed by inoculation with 0.01 ml of the standardized bacteria suspension. The bacteria were incubated at 37° C. for 18 to 20 hours. Control tests using only the solvent were carried out simultaneously.
(§4) The measurement was carried out macroscopically to determine the minimum inhibitory concentration (the lowest still bacteriostatically effective concentration).
(§5) The following test organisms were used:
(§6) Staphylococcus aureus SG 511, St. aureus E 88 (β-lactamase carrier), Escherichia coli ATCC 11 775, Pseudomonas aeruginosa Hamburgensis and Pseudomonas aeruginosa Walter, Serratia macrescens ATCC 13 880, Klebsiella pneumoniae ATCC 10 031 and 272, Proteus mirabilis Hamburgensis, Proteus rettgeri Eb. cloaceae ATCC 13047, and E. coli R+TEM (β-lactamase carrier).
(§7) The following tables show the determined minimum inhibitory concentrations (MIC) for a few representative compounds (E=Na) of the present invention, and two known cephalosporins for comparison: […]

St. aureus E 88 = assay: Serial dilution test in the microtiter system, MIC against S. aureus E 88 (β-lactamase carrier); assay type: cell-based; settings: Staphylococcus aureus, E88, minimum inhibitory concentration, 37° C., 18 to 20 hours
Description: as §1, §2, §3, §4, §5, §6, §7

[2] = test system: Escherichia coli ATCC 11 775; assay: Serial dilution test in the microtiter system, MIC against E. coli ATCC 11775; assay type: cell-based; settings: minimum inhibitory concentration, 37° C., 18 to 20 hours
Description: as §1, §2, §3, §4, §5, §6, §7

[3] = test system: Pseudomonas aeruginosa Hamburgensis; assay: Serial dilution test in the microtiter system, MIC against Pseudomonas aeruginosa Hamburgensis; assay type: cell-based; settings: minimum inhibitory concentration, 37° C., 18 to 20 hours, read-out: MIC, Pseud. aerug. Hbg.
Description: as §1, §2, §3, §4, §5, §6, §7

[4] = test system: Pseudomonas aeruginosa Walter; assay: Serial dilution test in the microtiter system, MIC against Pseudomonas aeruginosa Walter; assay type: cell-based; settings: minimum inhibitory concentration, 37° C., 18 to 20 hours, read-out: MIC, Pseud. aerug. Walter
Description: as §1, §2, §3, §4, §5, §6, §7

[5] = test system: Klebsiella pneumoniae ATCC 10 031; assay: Serial dilution test in the microtiter system, MIC against Klebsiella pneumoniae ATCC 10031; assay type: cell-based; settings: minimum inhibitory concentration, 37° C., 18 to 20 hours, read-out: MIC, Klebs. pneum. ATCC 10031
Description: as §1, §2, §3, §4, §5, §6, §7

[6] = test system: Klebsiella pneumoniae 272; assay: Serial dilution test in the microtiter system, MIC against Klebsiella pneumoniae 272; assay type: cell-based; settings: minimum inhibitory concentration, 37° C., 18 to 20 hours, read-out: MIC, Klebs. pneum. 272
Description: as §1, §2, §3, §4, §5, §6, §7

[7] = test system: Proteus mirabilis Hamburgensis; assay: Serial dilution test in the microtiter system, MIC against Proteus mirabilis Hamburgensis; assay type: cell-based; settings: minimum inhibitory concentration, 37° C., 18 to 20 hours, read-out: MIC, Prot. Mir. Hbg.
Description: as §1, §2, §3, §4, §5, §6, §7

Proteus rettgeri = assay: Serial dilution test in the microtiter system, MIC against Proteus rettgeri; assay type: cell-based; settings: Providencia rettgeri; minimum inhibitory concentration; 37° C., 18 to 20 hours; read-out: MIC, Prot. rettg.
Description: as §1, §2, §3, §4, §5, §6, §7

Eb. cloaceae ATCC 13047 = assay: Serial dilution test in the microtiter system, MIC against Eb. cloaceae ATCC 13047; assay type: cell-based; settings: minimum inhibitory concentration; 37° C., 18 to 20 hours
Description: as §1, §2, §3, §4, §5, §6, §7

E. coli R+TEM = assay: Serial dilution test in the microtiter system, MIC against E. coli R+TEM (β-lactamase carrier); assay type: cell-based; settings: Escherichia coli, read-out: MIC, E. coli R + TEM
Description: as §1, §2, §3, §4, §5, §6, §7

[8] = test system: Serratia macrescens ATCC 13 880; assay: Serial dilution test in the microtiter system, MIC against Serratia marcescens ATCC 13880; assay type: cell-based; settings: read-out: MIC, Serr. marcesc. ATCC 13880
Description: as §1, §2, §3, §4, §5, §6, §7

E. coli ATCC 11775 = assay: In vivo test in mice against experimental E. coli infection; design: species or system Female NMRI mice; settings: Escherichia coli, ATCC11775, sc, 168 h; subcutaneous; per dose; dose at which 50% of the animals survived; observation 7 days
Description: (§8) A series of the compounds according to the invention was tested in vivo in mice against experimental infections. As pathogenic bacteria were used E. coli ATCC 11775 and Pseudomonas aeruginosa Walter. An intraperitoneal infection was induced in each mouse with 0.2 ml of a 5% mucin suspension of the bacteria corresponding of approximately 1.4×10^6 E. coli cells and 1.3×10^6 Pseudomonas cells per mouse. Female NMRI mice were used, divided into groups of 10 animals. Two groups were untreated and the remaining groups were treated with different doses of the cephalosporins to be tested to determine the ED50 (dose at which 50% of the animals survived). The groups infected with E. coli were on the first day treated with the test compound three times ([…] post infectionem) and on the second day twice. The groups with the Pseudomonas infection were on the first day treated with the test compound six times (1, 3, 5, 7, 9 and 11 hours post infectionem), and on the following two days twice.
(§9) The observation time was in both cases 7 days.

[9] = test system: Pseudomonas aeruginosa Walter; assay: In vivo test in mice against experimental Pseudomonas infection; design: species or system Female NMRI mice; settings: Pseudomonas aeruginosa, sc, 168 h; subcutaneous; per dose; dose at which 50% of the animals survived; observation 7 days
Description: as §8, §9

Structure (SMILES) | MIC [1] | MIC (St. aureus E 88) | MIC [2] | MIC [3] | MIC [4] | MIC [5] | MIC [6] | MIC [7] | MIC (Proteus rettgeri) | MIC (Eb. cloaceae ATCC 13047) | MIC (E. coli R+TEM) | MIC [8] | ED50 (E. coli ATCC 11775) | ED50 [9]
Cn1nnnc1SCC1=C(C(=O)O)N2C(=O)[C@@H](NC(=O)C(NC(=O)Nc3cnc(Nc4ccc(S(N)(=O)=O)cc4)nc3O)c3cccs3)[C@H]2SC1 (stereo partly drawn) [M] | 0.5 µg/mL (≈ 0.645 µM) | 4 µg/mL (≈ 5.16 µM) | 0.13 µg/mL (≈ 0.168 µM) | 4 µg/mL (≈ 5.16 µM) | 4 µg/mL (≈ 5.16 µM) | 0.25 µg/mL (≈ 0.323 µM) | 0.25 µg/mL (≈ 0.323 µM) | 0.13 µg/mL (≈ 0.168 µM) | 0.5 µg/mL (≈ 0.645 µM) | 0.5 µg/mL (≈ 0.645 µM) | 4 µg/mL | 0.25 µg/mL (≈ 0.323 µM) | – | –
Cc1nnc(SCC2=C(C(=O)O)N3C(=O)[C@@H](NC(=O)Cn4cnnn4)[C@H]3SC2)s1 [Cephazolin, reference compound] | 0.06 µg/mL (≈ 0.132 µM) | 8 µg/mL (≈ 17.6 µM) | 4 µg/mL (≈ 8.8 µM) | > 100 µg/mL | > 100 µg/mL | 1 µg/mL (≈ 2.2 µM) | 2 µg/mL (≈ 4.4 µM) | 4 µg/mL (≈ 8.8 µM) | > 100 µg/mL | > 100 µg/mL | 4 µg/mL | > 100 µg/mL | – | –
Cn1nnnc1SCC1=C(C(=O)O)N2C(=O)[C@@H](NC(=O)[C@H](NC(=O)Nc3cnc(C4CC4)nc3O)c3ccc(O)cc3)[C@H]2SC1 [A] | 0.5 µg/mL (≈ 0.764 µM) | 8 µg/mL (≈ 12.2 µM) | 0.5 µg/mL (≈ 0.764 µM) | 8 µg/mL (≈ 12.2 µM) | 8 µg/mL (≈ 12.2 µM) | 1 µg/mL (≈ 1.53 µM) | 1 µg/mL (≈ 1.53 µM) | 0.5 µg/mL (≈ 0.764 µM) | 2 µg/mL (≈ 3.05 µM) | 2 µg/mL (≈ 3.05 µM) | 8 µg/mL | 2 µg/mL (≈ 3.05 µM) | 1.6 mg/kg | 15.2 mg/kg
Cc1nnc(SCC2=C(C(=O)O)N3C(=O)[C@@H](NC(=O)[C@H](NC(=O)Nc4cnc(NC5CCC(O)CC5)nc4O)c4ccc(O)cc4)[C@H]3SC2)s1 (stereo partly drawn) [G] | 1 µg/mL (≈ 1.34 µM) | 16 µg/mL (≈ 21.5 µM) | 0.5 µg/mL (≈ 0.672 µM) | 16 µg/mL (≈ 21.5 µM) | 16 µg/mL (≈ 21.5 µM) | 2 µg/mL (≈ 2.69 µM) | 2 µg/mL (≈ 2.69 µM) | 0.5 µg/mL (≈ 0.672 µM) | 1 µg/mL (≈ 1.34 µM) | 2 µg/mL (≈ 2.69 µM) | 16 µg/mL | 2 µg/mL (≈ 2.69 µM) | – | –
CCCNc1ncc(NC(=O)N[C@@H](C(=O)N[C@@H]2C(=O)N3C(C(=O)O)=C(CSc4nnnn4C)CS[C@H]23)c2ccc(O)cc2)c(O)n1 [B] | 1 µg/mL (≈ 1.49 µM) | 8 µg/mL (≈ 11.9 µM) | 0.5 µg/mL (≈ 0.744 µM) | 4 µg/mL (≈ 5.95 µM) | 8 µg/mL (≈ 11.9 µM) | 0.5 µg/mL (≈ 0.744 µM) | 0.5 µg/mL (≈ 0.744 µM) | 0.25 µg/mL (≈ 0.372 µM) | 1 µg/mL (≈ 1.49 µM) | 1 µg/mL (≈ 1.49 µM) | 8 µg/mL | 1 µg/mL (≈ 1.49 µM) | 1.1 mg/kg | 12.4 mg/kg
Cn1nnnc1SCC1=C(C(=O)O)N2C(=O)[C@@H](NC(=O)[C@H](NC(=O)Nc3cnc(NCCCO)nc3O)c3ccc(O)cc3)[C@H]2SC1 [E] | 1 µg/mL (≈ 1.45 µM) | 8 µg/mL (≈ 11.6 µM) | 0.25 µg/mL (≈ 0.364 µM) | 4 µg/mL (≈ 5.82 µM) | 8 µg/mL (≈ 11.6 µM) | 0.5 µg/mL (≈ 0.727 µM) | 1 µg/mL (≈ 1.45 µM) | 0.13 µg/mL (≈ 0.189 µM) | 1 µg/mL (≈ 1.45 µM) | 0.5 µg/mL (≈ 0.727 µM) | 16 µg/mL | 1 µg/mL (≈ 1.45 µM) | 0.8 mg/kg | 11.2 mg/kg
